Results: patent publication US20240408116A1, “COMPOSITIONS FOR ENHANCING SEXUAL PLEASURE WITH REDUCED PHAR[…] OF PDE5 INHIBITOR” (priority 2023, published 2024)

Tested on: male participants
Assay: Male participants rated strength of erections and orgasms on a scale of 1 to 10 after ingesting PDE5 inhibitor and cannabis/THC
Assay type: in vivo, human

Measured: PDE5 inhibiting effect of THC taken alone

Method: Male participants rated the strength of their erections and orgasms, and female participants rated the strength of their threshold desire, arousal and orgasms, on a scale of 1 to 10.
This first time, the subject took the full prescription dose of sildenafil (100 mg) in pill form together with an infused cannabis edible containing 20 mg of THC.
The subject in Examples 1 and 2 further reduced the dosage of sildenafil to 40 mg, 30 mg, and 20 mg in stages, together with cannabis dosages that delivered 20 mg, 15 mg, or 10 mg of THC.
A test subject consumed ingestible dosage forms of cannabis and sildenafil. This first time, the subject took 50% of the full prescription dose of sildenafil (50 mg) in pill form together with an infused cannabis edible containing 20 mg of THC.
The subject in Example 4 further reduced the dosage of sildenafil to 40 mg and used the same cannabis dosage that delivered 20 mg of THC.
The subject in Examples 4 and 5 further reduced the dosage of sildenafil to 30 mg, 20 mg, and 10 mg in stages, together with cannabis dosages that delivered 20 mg, 15 mg, or 10 mg of THC.
A test subject consumed ingestible dosage forms of cannabis and sildenafil. This first time, the subject took 60% of the full prescription dose of sildenafil (60 mg) in pill form together with an infused cannabis edible containing 25 mg of THC.
The test subject in Example 7 further reduced the dosage of sildenafil to 40 mg and used a cannabis dosage that delivered 20 mg of THC.
The subject in Examples 7 and 8 further reduced the dosage of sildenafil to 30 mg, 20 mg, and 10 mg in stages, together with cannabis dosages that delivered 20 mg, 15 mg, or 10 mg of THC.

CCCCCc1cc(O)c2c(c1)OC(C)(C)[C@@H]1CCC(C)=C[C@@H]21 [THC, tetrahydrocannabinol]
no noticeable PDE5 inhibiting effect: Example 1: person | Example 4: person | Example 7: person | Example 10: person
